The values below come from patent publication US20230026163A1, “ANTICANCER COMPOUND AND MEDICAL USE THEREOF” (ASCENTAWITS PHARMACEUTICALS, LTD., priority 2019, published 2023).

One series has as its system AA8 cell line. Briefly: Cytotoxicity on AA8 cell line (2 hours exposure, AlamarBlue). The series is classed as cell-based, Chinese hamster. The following applies: Cricetulus griseus, CHO-AA8; AA8, 2 hours exposure, then 70 hours, normoxic.
A further series concerns the target P-glycoprotein (Homo sapiens, UniProt P08183). Briefly: in vitro. On the procedure:
MDCKII-MDR1 cells were incubated in cell culture flasks. The incubator was set at 37° C., 5% CO2, and a guaranteed relative humidity of 95%. When the cells reached 70 to 90% confluence, the cells may be seeded to transwells.
50 μL of the cell suspensions were added to the apical chambers of each well of the 96-well transwells at a final seeding density of 5.45×10^5 cells/cm^2.
MDCKII-MDR1 cells may be fully confluent and differentiated after 4 to 8 days of incubation. At this time, the cells may be applied to penetration test. The monolayer membrane resistance was measured with a resistance meter (Millipore), and the resistance per well was recorded. After the test, the transwells were returned to the incubator.
The transwells with MDCKII-MDR1 cells were taken from the incubator. The cell monolayers were rinsed twice with buffer and incubated at 37° C. for 30 minutes.
The rate of the compounds from an apical end to a basolateral end was determined. 75 μL of the buffer containing the test sample was added to each well of the apical chambers (apical end), and 235 μL of the buffer was added to each well of the basolateral chambers (basolateral end).
The rate of the compounds transporting from the basolateral end to the apical end was determined. 75 μL of the buffer was added to the apical chambers (apical end), and 235 μL of the buffer containing the test sample was added to the basolateral chamber (basolateral end).
After the apical chambers and the basolateral chambers were combined respectively, the transwells were incubated at 37° C. for 2 hours.
After incubation, 50 μL of the sample from each well of the apical chambers and the basolateral chambers of the transwells was transferred to new sample tubes respectively. 200 μL of acetonitrile (100 nM of Alprazolam, 200 nM of Labetalol, 200 nM of caffeine, and 2 μM of Ketoprofen) as an internal standard was added to the sample tubes, vortexed for 10 minutes, and centrifuged at 3220 g for 30 minutes. 100 μL of the supernatant was taken and diluted with an equal volume of water for LC-MS/MS analysis. Each sample was incubated in triplicate.
Peak-areas were calculated from ion chromatography results. The apparent permeability coefficient (Papp, unit: cm/s×10-6) of the compounds was calculated by the following formula.
In the formula, VA was the volume of the solution at the acceptor end (Ap→B1 was 0.235 mL, and B1→Ap was 0.075 mL), Area was the membrane area (0.143 cm^2) of 96-well transwell, time was the incubation time (unit: s), [drug]acceptor referred to the drug concentration of the acceptor end after incubation, and [drug]initial,donor referred to the initial concentration of the donor end before incubation.
Efflux ratio was calculated with the following formula.
In the formula, Papp(B_A) was the apparent permeability coefficient from the basolateral end to the apical end, and Papp(A-B) was the apparent permeability coefficient from the apical end to the basolateral end.
The recovery rate was calculated with the following formula.
In the formula, VA was the solution volume of the acceptor end (unit: mL), VD was the solution volume of the donor end (unit: mL), [drug]acceptor referred to the drug concentration of the acceptor end after incubation, and [drug]initial,donor referred to the initial concentration of the donor end before incubation.

In another series the test system is H460 cell line. Briefly: Cytotoxicity comparison of TH-302 and compound 01 on H460 at different test times. The format is cell-based, human. As to conditions: for IC50: Homo sapiens, NCI-H460, 2 h, H460, exposure for 2 hours, air. From the text:
The cytotoxicity test results of TH-302 and compound 01 on H460 cell line under different test times in the same laboratory, the same operator, and the same experimental conditions.

Structures are written as SMILES.

P-glycoprotein, sequence (P08183 whole entry): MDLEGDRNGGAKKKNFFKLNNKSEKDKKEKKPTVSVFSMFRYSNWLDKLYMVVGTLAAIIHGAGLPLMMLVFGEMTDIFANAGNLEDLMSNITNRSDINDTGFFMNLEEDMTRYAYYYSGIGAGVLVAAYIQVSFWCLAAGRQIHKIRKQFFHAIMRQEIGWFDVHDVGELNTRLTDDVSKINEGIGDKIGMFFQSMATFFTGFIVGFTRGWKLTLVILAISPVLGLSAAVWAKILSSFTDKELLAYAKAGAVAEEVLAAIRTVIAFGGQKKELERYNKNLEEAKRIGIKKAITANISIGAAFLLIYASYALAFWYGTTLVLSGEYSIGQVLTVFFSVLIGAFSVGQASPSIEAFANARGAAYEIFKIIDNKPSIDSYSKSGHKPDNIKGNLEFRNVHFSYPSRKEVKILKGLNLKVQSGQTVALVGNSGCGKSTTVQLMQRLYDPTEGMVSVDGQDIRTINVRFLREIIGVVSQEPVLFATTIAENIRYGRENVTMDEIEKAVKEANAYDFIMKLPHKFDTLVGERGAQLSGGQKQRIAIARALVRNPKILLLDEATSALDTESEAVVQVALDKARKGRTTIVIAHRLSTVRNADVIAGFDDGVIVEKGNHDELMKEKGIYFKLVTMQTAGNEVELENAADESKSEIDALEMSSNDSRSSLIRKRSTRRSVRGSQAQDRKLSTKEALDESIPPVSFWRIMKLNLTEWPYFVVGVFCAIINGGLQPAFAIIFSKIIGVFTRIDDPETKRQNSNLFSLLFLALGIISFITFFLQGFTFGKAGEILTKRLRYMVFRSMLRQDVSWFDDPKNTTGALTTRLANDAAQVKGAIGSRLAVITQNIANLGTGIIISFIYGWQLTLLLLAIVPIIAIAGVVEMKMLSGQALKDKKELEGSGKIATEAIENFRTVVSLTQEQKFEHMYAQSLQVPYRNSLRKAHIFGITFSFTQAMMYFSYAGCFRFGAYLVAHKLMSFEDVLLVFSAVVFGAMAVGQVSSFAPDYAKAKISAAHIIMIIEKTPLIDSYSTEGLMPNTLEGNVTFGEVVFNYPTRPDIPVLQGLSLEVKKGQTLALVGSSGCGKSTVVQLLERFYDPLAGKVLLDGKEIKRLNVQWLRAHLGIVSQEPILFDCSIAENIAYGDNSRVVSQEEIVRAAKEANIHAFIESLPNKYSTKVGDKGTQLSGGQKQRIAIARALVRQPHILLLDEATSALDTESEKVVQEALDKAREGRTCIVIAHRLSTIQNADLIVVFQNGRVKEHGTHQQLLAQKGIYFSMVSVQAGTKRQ

Turning to `O=[N+]([O-])c1ccc(C(OP(=O)(N2CC2)N2CC2)C(F)(F)F)c2ccccc12` (centres unmarked) [Compound 01], the IC50 with AA8 cell line worked out at 10800 nM; with H460 cell line (Time 1) it was 700 nM; in the series on H460 cell line (Time 2), 300 nM; in the series on H460 cell line (Time 3) it was 500 nM. Besides, on P-glycoprotein (dog, MDCK-MDR1), the Papp A→B at 2 h worked out at 18.6 ×10⁻⁶ cm/s. On P-glycoprotein (dog, MDCK-MDR1), this molecule had an apparent permeability from basolateral to apical (Papp B→A) at 2 h of 11.9 ×10⁻⁶ cm/s. In addition, the recovery at 2 h at P-glycoprotein (dog, MDCK-MDR1, Recovery (%) AP-BL, Verapamil 0 μM) turned out to be 58.6%; at P-glycoprotein (dog, MDCK-MDR1, Recovery (%) AP-BL, Verapamil 100 μM), 63.4%; on P-glycoprotein (dog, MDCK-MDR1, Recovery (%) BL-AP, Verapamil 0 μM), 58.6%; at P-glycoprotein (dog, MDCK-MDR1, Recovery (%) BL-AP, Verapamil 100 μM), 67.3%. Moreover, the “P-glycoprotein substrate (experimental conclusion)” value on P-glycoprotein (with vs without Verapamil) is reported as “not P-glycoprotein substrates”. In addition, the results for the “Multiple TH-302/Compound 01” value in the series on H460 cell line (Time 1), in the series with H460 cell line (Time 2) and with H460 cell line (Time 3) were 32.9, 26.7 and 6.6, respectively.

What is called IC50 is the concentration that inhibits the measured activity by half. High values mean lower potency, low ones higher potency. Usually Papp A→B stands for how fast a substance crosses the layer from the apical side. A lower Papp A→B goes with slow passage. Broadly, the Papp B→A is the apparent permeability from the basolateral to the apical side of a cell layer.
